Data reported in ChEMBL document CHEMBL1765061, “Synthesis of rabdokunmin C analogues and their inhibitory effect on NF-κB activation” (Bioorg Med Chem, 2011).
Activity calls are given as the source filed them. The calls are words filed in the database; no cut-off is given here.

Tests used:
RAW264 = assay: Inhibition of LPS-induced NO production in mouse RAW264 cells after 24 hrs; assay type: functional, cell-based
[1] = Cytotoxicity against mouse RAW264 cells after 2 hrs by WST reagent-based microplate reader analysis; assay type: cell-based; settings: raw264, 2 h
HEK-293T = assay: Cytotoxicity against human 293T cells assessed as cell viability by dual-luciferase reporter assay; assay type: cell-based
[2] = Inhibition of LPS-induced NF-kappaB activation in human 293T cells incubated for 30 mins followed by treated with LPS for 6 hrs by dual-luciferase reporter assay; assay type: cell-based; settings: HEK-293T

For `C=C1C(=O)[C@@]23[C@@H]4OC(C)(C)O[C@@H]2C[C@@H]2[C@@](C)(COC(C)=O)CCC[C@@]2(C)[C@@H]3C[C@H](O)[C@@H]14`, the inhibition (RAW264) was “Active” and the Activity [1] was “Toxic”.
Molecule `C=C1C(=O)[C@@]23[C@H](O)C[C@@H]4[C@@](C)(COC(=O)CCC)CCC[C@@]4(C)[C@@H]2C[C@H](OC(=O)CCC)[C@@H]1[C@H]3O` has an IC50 (HEK-293T) of 2.3 µM and an IC50 [2] of 2.97 µM.
For `C=C1C(=O)[C@@]23[C@H](O)C[C@@H]4[C@@](C)(CO)CCC[C@@]4(C)[C@@H]2C[C@H](O)[C@@H]1[C@H]3O` [RABDOKUNMIN C], the inhibition (RAW264) was “Active” and the Activity [1] was “Toxic”.
In the case of `C=C1C(=O)[C@@]23[C@H](O)C[C@H]4[C@@](C)(CCC[C@]4(C)C=O)[C@@H]2C[C@H](OC(C)=O)[C@@H]1[C@H]3O`, the inhibition (RAW264) is reported as “Active” and the Activity [1] is reported as “Toxic”.
With `C=C1C(=O)[C@@]23[C@H](O)C[C@@H]4[C@@](C)(COC(C)=O)CCC[C@@]4(C)[C@@H]2C[C@H](O)[C@@H]1[C@H]3O` [ALBOPILOSIN A] the inhibition (RAW264) was “Active” and the Activity [1] was “Toxic”.
With `C=C1C(=O)[C@@]23[C@H](O)C[C@@H]4[C@@](C)(CO)CCC[C@@]4(C)[C@@H]2C=C[C@@H]1[C@H]3O` the inhibition (RAW264) was “Active” and the Activity [1] was “Toxic”.
For `C[C@H]1C(=O)[C@@]23[C@H](O)C[C@@H]4[C@@](C)(CO)CCC[C@@]4(C)[C@@H]2C[C@H](O)[C@@H]1[C@H]3O`, the inhibition (RAW264) was “Active” and the Activity [1] was “Toxic”.
For `C=C1C(=O)[C@@]23[C@@H]4OC(C)(C)O[C@@H]2C[C@@H]2[C@@](C)(CO)CCC[C@@]2(C)[C@@H]3C[C@H](O)[C@@H]14`, the inhibition (RAW264) was “Active” and the Activity [1] was “Toxic”.
For `C=C1C(=O)[C@@]23[C@H](O)C[C@@H]4[C@@](C)(COC(C)=O)CCC[C@@]4(C)[C@@H]2C[C@H](OC(C)=O)[C@@H]1[C@H]3O`, the inhibition (RAW264) was “Active”, the Activity [1] was “Toxic” and the IC50 (HEK-293T) was 2.92 µM. For the same molecule, the IC50 [2] was 2 µM.
For `C=C1C(=O)[C@@]23[C@H](O)C[C@@H]4[C@@](C)(CO)CCC[C@@]4(C)[C@@H]2C[C@H](OC(C)=O)[C@@H]1[C@H]3O`, the inhibition (RAW264) was “Active” and the Activity [1] was “Toxic”.
For `C=C1C(=O)[C@@]23[C@H](O)C[C@H]4[C@@](C)(CCC[C@]4(C)C(=O)O)[C@@H]2C[C@H](OC(C)=O)[C@@H]1[C@H]3O`, the inhibition (RAW264) was “Active” and the Activity [1] was “Toxic”.
In the case of `C=C1C(=O)[C@@]23[C@H](O)C[C@@H]4[C@@](C)(CO)CCC[C@@]4(C)[C@@H]2C[C@H](OC(=O)CCC)[C@@H]1[C@H]3O`, the IC50 (HEK-293T) is reported as 1.91 µM and the IC50 [2] is reported as 1.68 µM.
For `C=C1C(=O)[C@@]23[C@@H]4OC(C)(C)O[C@@H]2C[C@@H]2[C@@](C)(CO)CCC[C@@]2(C)[C@@H]3C=C[C@@H]14`, the inhibition (RAW264) was “Active” and the Activity [1] was “Toxic”.
In the case of `C=C1C(=O)[C@@]23[C@@H]4OC(C)(C)O[C@@H]2C[C@@H]2[C@@](C)(CO)CCC[C@@]2(C)[C@@H]3C[C@H](OC(C)=O)[C@@H]14`, the inhibition (RAW264) is reported as “Active”, the Activity [1] is reported as “Toxic” and the IC50 (HEK-293T) is reported as 2.39 µM. For the same molecule, the IC50 [2] was 1.53 µM.
`C=C1C(=O)[C@]23[C@H](O)[C@H]1CC[C@H]2[C@@]12CO[C@]3(O)[C@@H](O)[C@@H]1C(C)(C)CC[C@@H]2O` [ORIDONIN] gave an IC50 (HEK-293T) greater than 5 µM and an IC50 [2] of 4.44 µM.
In the case of `C=C1C(=O)[C@@]23[C@@H]4OC(C)(C)O[C@@H]2C[C@@H]2[C@@](C)(COC(C)=O)CCC[C@@]2(C)[C@@H]3C[C@H](OC(C)=O)[C@@H]14`, the inhibition (RAW264) is reported as “Active”, the Activity [1] is reported as “Toxic” and the IC50 (HEK-293T) is reported as 1.8 µM. It also gave an IC50 [2] of 2.01 µM.
In the case of `C=C1C(=O)[C@@]23[C@H](O)C[C@@H]4[C@@](C)(COC(C)=O)CCC[C@@]4(C)[C@@H]2C=C[C@@H]1[C@H]3O`, the inhibition (RAW264) is reported as “Active”, the Activity [1] is reported as “Toxic” and the IC50 (HEK-293T) is reported as greater than 5 µM. It also gave an IC50 [2] of 1.47 µM.
With `CC1=C(O)C(=O)C=C2C1=CC=C1[C@@]2(C)CC[C@@]2(C)[C@@H]3C[C@](C)(C(=O)O)CC[C@]3(C)CC[C@]12C` [CELASTROL] the inhibition (RAW264) was “Active”, the Activity [1] was “Toxic” and the IC50 (HEK-293T) was 0.67 µM. The IC50 [2] was 0.17 µM.
For `C=C1C(=O)[C@@]23[C@H](O)C[C@@H]4[C@@](C)(COC(=O)CC)CCC[C@@]4(C)[C@@H]2C[C@H](OC(=O)CC)[C@@H]1[C@H]3O`, the IC50 (HEK-293T) was greater than 5 µM and the IC50 [2] was greater than 5 µM.
In the case of `C=C1C(=O)[C@@]23[C@@H]4OC(C)(C)O[C@@H]2C[C@@H]2[C@@](C)(COC(=O)C(F)(F)F)CCC[C@@]2(C)[C@@H]3C[C@H](OC(=O)C(F)(F)F)[C@@H]14`, the inhibition (RAW264) is reported as “Active” and the Activity [1] is reported as “Toxic”.
